The text below walks through data of patent US20240018153A1, “BENZENESULFONAMIDE DERIVATIVES AND USES THEREOF” (2692372 ONTARIO, INC., priority 2020, published 2024).

Each structure is given as a SMILES string.

Experiment [1] concerns the target T1, EGFR (Homo sapiens (Human), UniProt P00533). In words: HTRF KinEASE-TK kinase assay, EGFR. Format: biochemical. Conditions: 3 h preincubation; for remaining activity at 1 µM: 1 μM compound, read-out: % EGFR Remaining activity vs DMSO (1 μM, 3 h); for remaining activity at 10 µM: 10 μM compound, read-out: % EGFR Remaining activity vs DMSO (10 μM, 3 h); for IC50: dose response, read-out: EGFR Inhibition IC50. An outline of the steps:
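HTRF KinEASE-TK format: EGFR pre-incubated with compound at 1 and 10 uM final (0.5% DMSO) in kinase buffer with 2 mM MnCl2, 5 mM MgCl2 and 1 mM TCEP.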
(In general: TR-FRET usually uses a lanthanide donor and a delayed reading to cut background.)

The target in experiment [2] is T1, EGFR. In words: A549 cell lysis and immunoassay, phospho-EGFR (Y1068) inhibition. It counts as cell-based. Set-up: key: X: EGFR bound and autophosphoration of EGFR inhibited in cells. The note with it: A549 cells; for pEGFR inhibition (A549, compound concentration, 24 h): compound concentration 10 μM. The procedure: A549 cells (ATCC) were cultured in Dulbecco's Modified Eagle's Medium (DMEM) (Wisent) supplemented with 10% FBS and 1% penicillin/streptomycin. Cells were seeded in 6-well plates at 530,000 cells/well and incubated at 37° C., 5% CO2 for 16 hours. Cells were starved in DMEM containing 1% FBS for 4 hours before they were treated with the indicated concentrations of compound or DMSO alone and incubated at 37° C., 5% CO2 for 24 hours. Prior to cell harvest and lysis, 50 ng/ml human epidermal growth factor (hEGF) (Sigma) was added to the cells and incubated at 37° C., 5% CO2 for 10 minutes. Conditioned media was discarded, and adherent cells were washed with PBS before they were scraped on ice. Cell suspensions were centrifugated at 2,000 RPM for 5 minutes at 4° C. and supernatants were discarded. Cell pellets were resuspended with 1× RIPA buffer (Millipore) and incubated on ice for 15 minutes. Protein lysates were extracted by centrifugating at 20,000 RPM for 20 minutes at 4° C. Proteins were separated and total EGFR protein levels were quantified by Simple Western Immunoassay (ProteinSimple) using the Protein Normalization Assay Module for Jess according to the manufacturer's protocol, using a protein concentration of 0.125 μg/μl and an antibody targeting EGFR (clone #EP38Y, Abcam) diluted to 1:400. Phosphorylated EGFR protein levels were quantified with the same assay using a protein concentration of 1 μg/μl and an antibody targeting pEGFR (Y1068) (Cell Signalling) diluted to 1:25. EGFR and phosphorylated EGFR levels were normalized to the Jess Protein Normalization Reagent loading control and subsequently to the DMSO control.

A further experiment concerns the target BTK (Homo sapiens (Human), UniProt Q06187). In words: HTRF KinEASE-TK kinase assay, BTK. Format: biochemical. Conditions: 3 h preincubation; for remaining activity at 1 µM: 1 μM compound, read-out: % BTK Remaining activity vs DMSO (1 μM, 3 h); for remaining activity at 10 µM: 10 μM compound, read-out: % BTK Remaining activity vs DMSO (10 μM, 3 h); for IC50: dose response, read-out: BTK Inhibition IC50. An outline of the steps:
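BTK activity in HTRF KinEASE-TK format, buffer containing 10 mM MnCl2, 5 mM MgCl2, 1 uM ATPγS and 1 mM TCEP; 45 min reaction with biotinylated substrate and ATP.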

For another experiment, the target named is BMX (Homo sapiens (Human), UniProt P51813). Put plainly: HTRF KinEASE-TK kinase assay, BMX. Conditions: for remaining activity at 1 µM: 1 uM compound; for remaining activity at 1 µM / remaining activity at 10 µM: 3 h preincubation; for remaining activity at 10 µM: 10 uM compound; for IC50: dose response. It counts as biochemical. Put shortly:
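Purchased BMX (0.333 ng/ul, 3.03 nM) was preincubated with or without inhibitor for 3 h at room temperature, then biotinylated substrate and ATP were added. Reactions were stopped with EDTA-containing buffer holding 31.25 nM SA-XL665 and Eu-antibody, and after 60 min phosphorylation was read as the HTRF 665/620 nm emission ratio.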

A further experiment deals with JAK3 (Homo sapiens (Human), UniProt P52333). In words: HTRF KinEASE-TK kinase assay, JAK3. Format: biochemical. Conditions: for IC50: dose response; for remaining activity at 1 µM: read-out: % JAK3 Remaining activity vs DMSO (1 μM, 3 h); for remaining activity at 10 µM: read-out: % JAK3 Remaining activity vs DMSO (10 μM, 3 h). An outline of the steps:
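Promega JAK3 at 0.21 nM was preincubated with inhibitor for 3 h at room temperature before biotinylated substrate and ATP were added. The reaction was stopped with EDTA detection buffer containing 31.25 nM SA-XL665 and Eu-antibody. After 60 min, the HTRF 665/620 nm emission ratio reflected substrate phosphorylation.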

A further experiment deals with FGFR4 (Homo sapiens (Human), UniProt P22455). Put plainly: HTRF KinEASE-TK kinase assay, FGFR4. Conditions: for remaining activity at 1 µM: read-out: % FGFR4 Remaining activity vs DMSO (1 μM, 3 h); for remaining activity at 10 µM: read-out: % FGFR4 Remaining activity vs DMSO (10 μM, 3 h). Format: biochemical. An outline of the steps: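 Promega FGFR4 at 0.333 ng/ul (5.12 nM) preincubated with or without inhibitor for 3 h at room temperature, then reaction started with biotinylated substrate and ATP. Stopped with EDTA detection buffer containing 31.25 nM SA-XL665 and Eu-antibody; after 60 min, HTRF 665/620 nm ratio read as substrate phosphorylation.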
Sequence of FGFR4 (P22455 22-802): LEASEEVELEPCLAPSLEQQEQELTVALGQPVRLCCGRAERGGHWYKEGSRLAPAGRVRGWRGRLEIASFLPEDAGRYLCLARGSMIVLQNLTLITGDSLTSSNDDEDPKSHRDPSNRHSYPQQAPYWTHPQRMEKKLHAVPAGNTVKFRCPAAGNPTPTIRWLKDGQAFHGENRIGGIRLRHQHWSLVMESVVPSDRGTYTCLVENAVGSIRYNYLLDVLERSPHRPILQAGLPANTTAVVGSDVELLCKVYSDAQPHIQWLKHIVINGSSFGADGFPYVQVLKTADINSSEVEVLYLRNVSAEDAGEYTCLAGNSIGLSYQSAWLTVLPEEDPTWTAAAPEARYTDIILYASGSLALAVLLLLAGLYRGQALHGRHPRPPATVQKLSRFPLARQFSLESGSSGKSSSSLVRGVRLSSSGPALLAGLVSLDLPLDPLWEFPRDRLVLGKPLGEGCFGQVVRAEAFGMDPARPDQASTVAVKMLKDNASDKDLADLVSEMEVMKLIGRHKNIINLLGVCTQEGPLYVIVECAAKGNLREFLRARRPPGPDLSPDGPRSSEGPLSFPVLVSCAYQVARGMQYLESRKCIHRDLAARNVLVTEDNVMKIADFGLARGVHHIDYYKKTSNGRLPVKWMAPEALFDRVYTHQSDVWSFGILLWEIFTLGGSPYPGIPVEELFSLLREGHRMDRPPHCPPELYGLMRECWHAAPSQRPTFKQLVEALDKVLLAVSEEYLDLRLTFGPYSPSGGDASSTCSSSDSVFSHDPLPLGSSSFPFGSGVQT

T1 sequence (P00533 25-1210): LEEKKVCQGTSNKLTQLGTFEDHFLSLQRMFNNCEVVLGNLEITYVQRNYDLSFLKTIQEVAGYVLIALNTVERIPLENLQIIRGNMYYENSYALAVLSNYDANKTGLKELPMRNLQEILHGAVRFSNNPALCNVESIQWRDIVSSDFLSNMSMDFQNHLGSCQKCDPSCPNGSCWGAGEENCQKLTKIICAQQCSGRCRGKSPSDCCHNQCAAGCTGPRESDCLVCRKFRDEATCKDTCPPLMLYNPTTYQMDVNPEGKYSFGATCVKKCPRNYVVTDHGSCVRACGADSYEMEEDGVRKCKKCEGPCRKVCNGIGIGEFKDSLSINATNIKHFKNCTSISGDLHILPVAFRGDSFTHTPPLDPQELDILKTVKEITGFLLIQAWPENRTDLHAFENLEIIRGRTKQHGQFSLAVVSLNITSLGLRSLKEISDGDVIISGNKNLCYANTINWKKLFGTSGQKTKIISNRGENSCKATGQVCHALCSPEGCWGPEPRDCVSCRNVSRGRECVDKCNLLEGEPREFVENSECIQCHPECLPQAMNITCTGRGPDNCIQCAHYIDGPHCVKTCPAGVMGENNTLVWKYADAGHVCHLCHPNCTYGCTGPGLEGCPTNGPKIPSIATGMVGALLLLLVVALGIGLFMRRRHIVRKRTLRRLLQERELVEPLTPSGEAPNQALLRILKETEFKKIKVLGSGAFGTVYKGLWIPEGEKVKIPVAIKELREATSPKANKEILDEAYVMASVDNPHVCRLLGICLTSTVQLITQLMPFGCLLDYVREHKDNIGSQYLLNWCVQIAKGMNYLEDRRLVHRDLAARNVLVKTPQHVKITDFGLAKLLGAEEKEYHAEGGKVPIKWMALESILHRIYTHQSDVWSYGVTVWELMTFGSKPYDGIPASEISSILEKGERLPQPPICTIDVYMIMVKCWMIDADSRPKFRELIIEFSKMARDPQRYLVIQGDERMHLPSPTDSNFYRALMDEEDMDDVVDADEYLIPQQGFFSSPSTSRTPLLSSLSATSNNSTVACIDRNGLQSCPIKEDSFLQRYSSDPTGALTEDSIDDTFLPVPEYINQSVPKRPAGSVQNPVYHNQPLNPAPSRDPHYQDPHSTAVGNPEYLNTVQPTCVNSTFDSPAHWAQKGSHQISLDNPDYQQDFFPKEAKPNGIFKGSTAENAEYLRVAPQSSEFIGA
Sequence of BTK (Q06187 whole entry): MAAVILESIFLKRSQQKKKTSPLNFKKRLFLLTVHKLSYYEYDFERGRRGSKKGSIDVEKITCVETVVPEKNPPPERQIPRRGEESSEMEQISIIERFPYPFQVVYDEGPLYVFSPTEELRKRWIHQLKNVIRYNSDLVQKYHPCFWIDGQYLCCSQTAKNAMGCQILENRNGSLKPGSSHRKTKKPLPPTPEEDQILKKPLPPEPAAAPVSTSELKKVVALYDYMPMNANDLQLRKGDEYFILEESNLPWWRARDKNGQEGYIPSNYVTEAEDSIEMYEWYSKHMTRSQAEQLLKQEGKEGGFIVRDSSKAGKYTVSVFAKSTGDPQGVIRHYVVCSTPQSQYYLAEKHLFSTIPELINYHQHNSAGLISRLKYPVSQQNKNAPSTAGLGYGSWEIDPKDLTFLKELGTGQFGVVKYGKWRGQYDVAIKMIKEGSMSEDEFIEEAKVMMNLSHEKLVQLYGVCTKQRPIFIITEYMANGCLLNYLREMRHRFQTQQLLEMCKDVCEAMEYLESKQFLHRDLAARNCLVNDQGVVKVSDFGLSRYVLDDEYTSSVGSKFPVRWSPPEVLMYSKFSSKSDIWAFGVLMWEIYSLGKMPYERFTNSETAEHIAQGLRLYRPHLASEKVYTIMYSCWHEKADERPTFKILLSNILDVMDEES
Sequence of JAK3 (P52333 781-1124): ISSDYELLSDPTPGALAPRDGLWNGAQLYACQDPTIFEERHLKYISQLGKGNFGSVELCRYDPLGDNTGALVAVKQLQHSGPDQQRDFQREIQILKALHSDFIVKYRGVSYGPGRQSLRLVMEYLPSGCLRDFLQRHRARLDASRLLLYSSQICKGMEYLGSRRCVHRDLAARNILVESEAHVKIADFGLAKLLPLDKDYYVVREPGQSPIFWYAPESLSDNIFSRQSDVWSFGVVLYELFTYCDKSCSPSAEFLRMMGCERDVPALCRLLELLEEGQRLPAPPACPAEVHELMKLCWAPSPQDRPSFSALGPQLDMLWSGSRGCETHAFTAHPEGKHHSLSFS
Sequence of BMX (P51813 whole entry): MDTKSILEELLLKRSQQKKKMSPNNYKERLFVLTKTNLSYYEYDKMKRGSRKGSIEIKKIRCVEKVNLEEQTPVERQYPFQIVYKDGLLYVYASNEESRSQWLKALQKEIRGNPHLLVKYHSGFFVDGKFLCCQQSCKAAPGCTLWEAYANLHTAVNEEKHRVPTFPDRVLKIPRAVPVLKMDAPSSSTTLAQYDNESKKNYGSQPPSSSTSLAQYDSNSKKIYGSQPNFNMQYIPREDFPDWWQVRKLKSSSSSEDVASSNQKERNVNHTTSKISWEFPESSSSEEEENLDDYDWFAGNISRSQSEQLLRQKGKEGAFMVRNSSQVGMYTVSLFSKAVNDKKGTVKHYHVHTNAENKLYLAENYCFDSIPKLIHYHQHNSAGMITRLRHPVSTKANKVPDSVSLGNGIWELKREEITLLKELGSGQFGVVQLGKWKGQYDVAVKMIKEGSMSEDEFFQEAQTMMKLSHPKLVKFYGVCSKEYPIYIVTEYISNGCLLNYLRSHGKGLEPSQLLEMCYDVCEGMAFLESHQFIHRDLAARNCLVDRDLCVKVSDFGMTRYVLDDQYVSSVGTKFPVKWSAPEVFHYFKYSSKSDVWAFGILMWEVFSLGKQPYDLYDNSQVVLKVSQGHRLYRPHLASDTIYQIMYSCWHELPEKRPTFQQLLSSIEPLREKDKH

With `COCCOc1ccc(Nc2ncc(F)c(Nc3cccc(NC(=O)c4c(F)c(F)c(F)c(F)c4S(C)(=O)=O)c3)n2)cc1` [Compound I-61, 2,3,4,5-tetrafluoro-N-(3-((5-fluoro-2-((4-(2-methoxyethoxy)phenyl)amino)pyrimidin-4-yl)amino)phenyl)-6-(methylsulfonyl)benzamide], the remaining activity at 1 µM on EGFR [1] was > 90%; on BTK it was < 50%; on BMX, < 50%; on JAK3, < 50%; at FGFR4, < 50%. Also, the remaining activity at 10 µM at EGFR [1], at BTK, on BMX, on JAK3 and on FGFR4 was < 50% throughout. Further, the “pEGFR inhibition (A549, 1 μM, 24 h)” value at EGFR [2] is reported as “X”. Moreover, the IC50 at JAK3 and against FGFR4 (dose response) was < 1000 nM each time.

With `C[S@+]([O-])c1c(F)c(F)c(F)c(F)c1C(=O)Nc1ncnc2[nH]ccc12` (racemic) [Compound I-46, 2,3,4,5-tetrafluoro-6-(methylsulfinyl)-N-(7H-pyrrolo[2,3-d]pyrimidin-4-yl)benzamide], the remaining activity at 1 µM on EGFR [1] was > 90%; at BTK it was 50 to 90%; at BMX, 50 to 90%; on JAK3, > 90%; on FGFR4, 50 to 90%. In addition, the remaining activity at 10 µM is > 90% on EGFR [1]; < 50% at BTK; 50 to 90% on BMX; > 90% on JAK3; > 90% at FGFR4. Also, the “pEGFR inhibition (A549, 1 μM, 24 h)” value at EGFR [2] is “X”. Moreover, the “pEGFR inhibition (A549, compound concentration, 24 h)” value at EGFR [2] is on record as “X”.

For `C[S+]([O-])c1c(F)c(F)c(F)c(F)c1Nc1cc2c(Nc3ccc(F)c(Cl)c3)ncnc2cc1O[C@H]1CCOC1` (stereo partly drawn) [Compound I-4, N^4-(3-chloro-4-fluorophenyl)-N^6-(2,3,4,5-tetrafluoro-6-(methylsulfinyl)phenyl)-7-(((S)-tetrahydrofuran-3-yl)oxy)quinazoline-4,6-diamine], the remaining activity at 1 µM on EGFR [1] was < 50%; on BTK, > 90%; at BMX, > 90%; at JAK3, > 90%; on FGFR4, > 90%. Also, the remaining activity at 10 µM on EGFR [1] is < 50%; on BTK, < 50%; at BMX, > 90%; at JAK3 it was > 90%; at FGFR4, > 90%. In addition, at EGFR [1], the IC50 is < 1000 nM. The “pEGFR inhibition (A549, 1 μM, 24 h)” value on EGFR [2] is listed as “X”. Besides, the “pEGFR inhibition (A549, compound concentration, 24 h)” value on EGFR [2] is on record as “X”.

In the case of `CN(C)S(=O)(=O)c1c(F)c(F)c(F)c(F)c1C(=O)NCCNc1ncnc2[nH]ccc12` [Compound I-47, N-(2-((7H-pyrrolo[2,3-d]pyrimidin-4-yl)amino)ethyl)-2-(N,N-dimethylsulfamoyl)-3,4,5,6-tetrafluorobenzamide], the remaining activity at 1 µM is > 90% at EGFR [1]; < 50% at BTK; < 50% on BMX; < 50% at JAK3; 50 to 90% at FGFR4. Moreover, the remaining activity at 10 µM was > 90% at EGFR [1]; < 50% at BTK; < 50% at BMX; < 50% on JAK3; 50 to 90% on FGFR4. The “pEGFR inhibition (A549, 1 μM, 24 h)” value at EGFR [2] is listed as “X”. The IC50 against BMX and at JAK3 was < 1000 nM each time.

For `Nc1ncnc2c1c(-c1ccc(Oc3ccccc3)cc1)nn2CCNC(=O)c1c(F)c(F)c(F)c(F)c1S(N)(=O)=O` [Compound I-42, N-(2-(4-amino-3-(4-phenoxyphenyl)-1H-pyrazolo[3,4-d]pyrimidin-1-yl)ethyl)-2,3,4,5-tetrafluoro-6-sulfamoylbenzamide], the remaining activity at 1 µM at EGFR [1] was 50 to 90%; on BTK, < 50%; on BMX, < 50%; on JAK3, > 90%; at FGFR4, 50 to 90%. The remaining activity at 10 µM at EGFR [1] is < 50%; at BTK, 50 to 90%; on BMX it was < 50%; on JAK3, 50 to 90%; at FGFR4 it was 50 to 90%. The “pEGFR inhibition (A549, 1 μM, 24 h)” value at EGFR [2] is reported as “X”. Moreover, the “pEGFR inhibition (A549, compound concentration, 24 h)” value on EGFR [2] is recorded as “X”. The IC50 on BTK and against BMX was < 1000 nM in each case.

As for `CS(=O)(=O)c1c(F)c(F)c(F)c(F)c1C(=O)NCCn1nc(-c2ccc(Oc3ccccc3)cc2)c2c(N)ncnc21` [Compound I-38, N-(2-(4-amino-3-(4-phenoxyphenyl)-1H-pyrazolo[3,4-d]pyrimidin-1-yl)ethyl)-2,3,4,5-tetrafluoro-6-(methylsulfonyl)benzamide], the remaining activity at 1 µM was < 50% on EGFR [1]; < 50% at BTK; < 50% on BMX; > 90% at JAK3; < 50% at FGFR4. The remaining activity at 10 µM on EGFR [1], at BTK, on BMX, at JAK3 and at FGFR4 was < 50% in each case. Also, the IC50 on EGFR [1] is > 1000 nM; on BTK it was < 1000 nM; on BMX it was < 1000 nM. Further, at EGFR [2], the “pEGFR inhibition (A549, 1 μM, 24 h)” value was “X”.

Regarding `C[S@+]([O-])c1c(F)c(F)c(F)c(F)c1C(=O)N1CC(n2nc(-c3ccc(Oc4ccccc4)cc3)c3c(N)ncnc32)C1` (racemic) [Compound I-37, (3-(4-amino-3-(4-phenoxyphenyl)-1H-pyrazolo[3,4-d]pyrimidin-1-yl)azetidin-1-yl)(2,3,4,5-tetrafluoro-6-(methylsulfinyl)phenyl)methanone], the remaining activity at 1 µM at EGFR [1] was < 50%; on BTK, < 50%; on BMX it was < 50%; at JAK3 it was < 50%; at FGFR4, > 90%. Besides, the remaining activity at 10 µM at EGFR [1] is < 50%; on BTK, < 50%; at BMX it was < 50%; on JAK3, < 50%; at FGFR4, > 90%. The IC50 was < 1000 nM at EGFR [1], < 1000 nM at BTK, < 1000 nM against BMX and > 1000 nM on JAK3. The “pEGFR inhibition (A549, 1 μM, 24 h)” value at EGFR [2] is listed as “X”. Moreover, the “pEGFR inhibition (A549, compound concentration, 24 h)” value on EGFR [2] is given as “X”.

As usually defined, the remaining activity is the activity still measured, relative to the control. For orientation: IC50 means the concentration needed to halve the response being measured.
